The source of these data is US11845736B2, “Prodrugs of MDMA, MDA, and derivatives thereof” (EmpathBio, Inc., priority 2021, dated 2023).

The conditions of series [1]: healthy human subjects, cited from earlier work.
The conditions of series [2]: cited from earlier work; for Cmax / Tmax: healthy human subjects.
Series [3] is described as follows: Compound solubility in FaSSIF.
Series [4] is described as follows: Compound mouse plasma stability.
A short description of series [5]: Compound chemical stability PBS (pH 6.5).
The nature of series [6]: Compound chemical stability SGF with pepsin.
Series [7] can be described thus: Compound chemical stability SGF without pepsin.

SMILES strings stand for the structures. ≈ marks a conversion by molar mass, not a printed value. Read-outs that look alike come from different tables or passages of the source.

The term Cmax denotes the maximum level reached in the sampled fluid or tissue. As usually defined, the Tmax is the time at which the peak concentration occurs. Turning to `CNC(C)Cc1ccc2c(c1)OCO2` (racemic) [MDMA, 3,4-methylenedioxymethamphetamine], in series [1] (75 mg MDMA), the Cmax is recorded as 130.9 ng/mL, the “T1/2 (elimination half-life)” value is listed as 7.7 h and the time to peak (Tmax) is reported as 1.8 h. Besides, in series [1] (125 mg MDMA), the Cmax is listed as 236.4 ng/mL, the “T1/2 (elimination half-life)” value is recorded as 8.6 h and the Tmax is recorded as 2.4 h.

As to `CC(N)Cc1ccc2c(c1)OCO2` (centres unmarked) [MDA], the Cmax in series [2] (75 mg MDA) is 7.8 ng/mL; in series [2] (125 mg MDA) it was 13.7 ng/mL. For the same compound, the Tmax is 5 h in series [2] (75 mg MDMA) and 7 h in series [2] (125 mg MDMA). Further, the “MDA formation rate constant” value in series [2] (estimated for both MDMA doses) is recorded as “about 0.75 h”.

By solubility is commonly meant how much of the substance goes into solution per volume. Low readings indicate a poorly soluble substance, high ones a readily soluble substance. `C[C@H](Cc1ccc2c(c1)OCO2)N(C)C(=O)OC(C)(C)C` [Compound 7, tert-butyl(R)-(1-(benzo[d][1,3]dioxol-5-yl)propan-2-yl)(methyl)carbamate] showed a solubility in series [3] of 257 µM (≈ 75.3 µg/mL). Besides, the “% Remaining” value in series [4] (0 minutes) came out at 100%; in series [4] (15 minutes) it was 101%; in series [4] (30 minutes), 92%; in series [4] (60 minutes), 83%; in series [4] (120 minutes), 92%; in series [5] (PBS pH 6.5, 0 minutes), 100.00%. The “% Remaining” value in series [5] (PBS pH 6.5, 30 minutes) amounted to 94.54%; in series [5] (PBS pH 6.5, 60 minutes), 105.49%; in series [5] (PBS pH 6.5, 120 minutes), 105.72%; in series [5] (PBS pH 6.5, 240 minutes) it was 102.75%; in series [6] (0 minutes), 100.00%; in series [6] (30 minutes) it was 74.97%. Moreover, the “% Remaining” value came to 63.49% in series [6] (60 minutes); 56.42% in series [6] (120 minutes); 28.25% in series [6] (240 minutes); 100.00% in series [7] (0 minutes); 89.90% in series [7] (30 minutes); 73.62% in series [7] (60 minutes). The “% Remaining” value in series [7] (120 minutes) came out at 61.79%; in series [7] (240 minutes) it was 30.52%.
